Laboratory results reported in ChEMBL document CHEMBL1151840, “Synthetic oligoribonucleotides containing arabinonucleotides act as agonists of TLR7 and 8” (Bioorg Med Chem Lett, 2009).
Calls of active or inactive are those of the source. No cut-off for these calls is given here.

Legend:
[1] = target: T1, Toll-like receptor 8 (Homo sapiens) (UniProt Q9NR97); assay: Agonist activity at human TLR8 expressed in HEK293XL cells assessed as NF-kappaB activation after 18 hrs; assay type: functional, cell-based
T1 sequence (whole entry): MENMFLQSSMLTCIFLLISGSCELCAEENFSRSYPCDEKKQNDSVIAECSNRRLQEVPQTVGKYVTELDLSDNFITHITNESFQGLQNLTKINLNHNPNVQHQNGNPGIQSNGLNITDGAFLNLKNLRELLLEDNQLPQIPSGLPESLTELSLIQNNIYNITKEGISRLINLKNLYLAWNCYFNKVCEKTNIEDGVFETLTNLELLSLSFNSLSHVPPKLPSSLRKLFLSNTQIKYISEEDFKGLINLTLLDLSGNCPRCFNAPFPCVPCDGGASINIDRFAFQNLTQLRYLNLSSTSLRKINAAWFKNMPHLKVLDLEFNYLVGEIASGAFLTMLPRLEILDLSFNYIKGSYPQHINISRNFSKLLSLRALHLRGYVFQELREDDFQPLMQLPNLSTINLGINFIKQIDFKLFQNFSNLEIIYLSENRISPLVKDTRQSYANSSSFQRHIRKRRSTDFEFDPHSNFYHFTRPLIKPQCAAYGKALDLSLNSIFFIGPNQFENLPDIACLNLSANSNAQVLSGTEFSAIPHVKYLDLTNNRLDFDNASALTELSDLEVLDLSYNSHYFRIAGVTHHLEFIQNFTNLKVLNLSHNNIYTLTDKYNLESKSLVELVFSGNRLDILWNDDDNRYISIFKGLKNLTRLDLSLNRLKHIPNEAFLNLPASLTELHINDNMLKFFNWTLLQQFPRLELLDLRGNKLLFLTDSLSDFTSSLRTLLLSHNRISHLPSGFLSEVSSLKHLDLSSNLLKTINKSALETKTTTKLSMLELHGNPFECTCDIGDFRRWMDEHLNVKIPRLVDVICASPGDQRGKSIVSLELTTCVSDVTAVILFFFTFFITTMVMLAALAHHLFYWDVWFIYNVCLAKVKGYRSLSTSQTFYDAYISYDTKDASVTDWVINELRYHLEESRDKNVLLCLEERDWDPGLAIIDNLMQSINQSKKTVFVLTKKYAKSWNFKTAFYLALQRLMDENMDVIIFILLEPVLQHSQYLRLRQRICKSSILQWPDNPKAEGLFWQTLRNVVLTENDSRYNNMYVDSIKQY

[2] = target: T2, Toll-like receptor 7 (Homo sapiens) (UniProt Q9NYK1); assay: Agonist activity at human TLR7 expressed in HEK293XL cells assessed as NF-kappaB activation after 18 hrs; assay type: functional, cell-based
T2 sequence (whole entry): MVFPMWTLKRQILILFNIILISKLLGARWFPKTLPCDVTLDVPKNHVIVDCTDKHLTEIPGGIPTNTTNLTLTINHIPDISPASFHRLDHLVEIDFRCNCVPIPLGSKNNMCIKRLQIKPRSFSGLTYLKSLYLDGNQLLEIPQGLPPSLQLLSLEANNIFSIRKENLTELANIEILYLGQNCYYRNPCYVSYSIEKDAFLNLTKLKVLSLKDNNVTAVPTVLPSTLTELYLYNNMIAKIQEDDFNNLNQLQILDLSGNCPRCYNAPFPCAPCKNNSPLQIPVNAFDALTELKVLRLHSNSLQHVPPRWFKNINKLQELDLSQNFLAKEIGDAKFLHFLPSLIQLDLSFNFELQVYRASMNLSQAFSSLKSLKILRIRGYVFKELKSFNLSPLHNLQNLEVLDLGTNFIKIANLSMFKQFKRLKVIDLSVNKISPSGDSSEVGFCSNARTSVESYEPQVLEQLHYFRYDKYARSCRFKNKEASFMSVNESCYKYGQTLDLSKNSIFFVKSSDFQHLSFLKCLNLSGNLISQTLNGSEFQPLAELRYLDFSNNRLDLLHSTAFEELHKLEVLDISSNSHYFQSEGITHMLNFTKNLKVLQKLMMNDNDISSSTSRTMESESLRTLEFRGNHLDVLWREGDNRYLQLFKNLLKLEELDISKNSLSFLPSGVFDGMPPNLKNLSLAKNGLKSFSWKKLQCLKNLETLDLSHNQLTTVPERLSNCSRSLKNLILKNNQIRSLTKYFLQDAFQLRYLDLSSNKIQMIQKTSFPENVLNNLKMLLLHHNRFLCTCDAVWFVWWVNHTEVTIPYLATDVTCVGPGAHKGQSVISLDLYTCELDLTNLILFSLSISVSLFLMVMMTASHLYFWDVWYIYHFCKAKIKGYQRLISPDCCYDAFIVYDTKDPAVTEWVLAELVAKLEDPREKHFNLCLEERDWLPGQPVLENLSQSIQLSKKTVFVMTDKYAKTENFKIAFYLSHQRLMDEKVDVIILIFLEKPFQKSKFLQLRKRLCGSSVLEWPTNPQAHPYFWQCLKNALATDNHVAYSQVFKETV

PBMC [3] = assay: Stimulation of immune response in human PBMC assessed as induction of IL1-beta production at 150 ug/ml after 24 hrs; assay type: functional, cell-based
PBMC [4] = assay: Stimulation of immune response in human PBMC assessed as induction of IL2R level at 150 ug/ml after 24 hrs; assay type: functional, cell-based
PBMC [5] = assay: Stimulation of immune response in human PBMC assessed as induction of IL8 production at 150 ug/ml after 24 hrs; assay type: functional, cell-based
PBMC [6] = assay: Stimulation of immune response in human PBMC assessed as induction of IL10 production at 150 ug/ml after 24 hrs; assay type: functional, cell-based
PBMC [7] = assay: Stimulation of immune response in human PBMC assessed as induction of IL12 production at 150 ug/ml after 24 hrs; assay type: functional, cell-based
PBMC [8] = assay: Stimulation of immune response in human PBMC assessed as induction of IFNalpha production at 150 ug/ml after 24 hrs; assay type: functional, cell-based
PBMC [9] = assay: Stimulation of immune response in human PBMC assessed as induction of IFN-gamma production at 150 ug/ml after 24 hrs; assay type: functional, cell-based
PBMC [10] = assay: Stimulation of immune response in human PBMC assessed as induction of MCP1 production at 150 ug/ml after 24 hrs; assay type: functional, cell-based
PBMC [11] = assay: Stimulation of immune response in human PBMC assessed as induction of RANTES production at 150 ug/ml after 24 hrs; assay type: functional, cell-based
PBMC [12] = assay: Stimulation of immune response in human PBMC assessed as induction of MIP1alpha production at 150 ug/ml after 24 hrs; assay type: functional, cell-based
PBMC [13] = assay: Stimulation of immune response in human PBMC assessed as induction of MIP1beta production at 150 ug/ml after 24 hrs; assay type: functional, cell-based
PBMC [14] = assay: Stimulation of immune response in human PBMC assessed as induction of TNFalpha production at 150 ug/ml after 24 hrs; assay type: functional, cell-based
Homo sapiens [15] = species on record: Homo sapiens; assay: Stimulation of immune response in human pDC assessed as induction of IFN-gamma production at 150 ug/ml after 24 hrs; assay type: functional
Homo sapiens [16] = species on record: Homo sapiens; assay: Stimulation of immune response in human pDC assessed as induction of IFNalpha production at 150 ug/ml after 24 hrs; assay type: functional
Homo sapiens [17] = species on record: Homo sapiens; assay: Stimulation of immune response in human pDC assessed as induction of IL12 production at 150 ug/ml after 24 hrs; assay type: functional
Homo sapiens [18] = species on record: Homo sapiens; assay: Stimulation of immune response in human pDC assessed as induction of TNFalpha production at 150 ug/ml after 24 hrs; assay type: functional
Homo sapiens [19] = species on record: Homo sapiens; assay: Stimulation of immune response in human pDC assessed as induction of MIP1alpha production at 150 ug/ml after 24 hrs; assay type: functional
Homo sapiens [20] = species on record: Homo sapiens; assay: Stimulation of immune response in human pDC assessed as induction of MIP1beta production at 150 ug/ml after 24 hrs; assay type: functional
Mus musculus = assay: Stimulation of immune response in C57BL/6 mouse assessed as induction of serum IL12 production at 50 mg/kg, sc after 2 hrs by luminex multiplex assay; assay type: functional, organism-based; set-up: dose 50 mg/kg
[21] = Stability in human serum assessed as full-length compound remaining after 10 mins by anion-exchange HPLC; assay type: ADME, cell-free; settings: read-out: Stability

Nc1ccn([C@@H]2O[C@H](COP(=O)(S)O[C@H]3[C@@H](O)[C@H](n4cnc5c(N)ncnc54)O[C@@H]3COP(=O)(S)O[C@H]3[C@@H](O)[C@H](n4cnc5c(=O)[nH]c(N)nc54)O[C@@H]3COP(=O)(S)O[C@H]3[C@@H](O)[C@H](n4ccc(=O)[nH]c4=O)O[C@@H]3COP(=O)(S)O[C@H]3[C@@H](O)[C@H](n4cnc5c(=O)[nH]c(N)nc54)O[C@@H]3COP(=O)(S)O[C@H]3[C@@H](O)[C@H](n4ccc(=O)[nH]c4=O)O[C@@H]3COP(=O)(S)O[C@H]3[C@@H](O)[C@H](n4cnc5c(=O)[nH]c(N)nc54)O[C@@H]3COP(=O)(S)O[C@H]3[C@@H](O)[C@H](n4ccc(=O)[nH]c4=O)O[C@@H]3COP(=O)(S)O[C@H]3[C@@H](O)[C@H](n4ccc(=O)[nH]c4=O)O[C@@H]3COP(=O)(S)O[C@H]3[C@@H](O)[C@H](n4cnc5c(=O)[nH]c(N)nc54)O[C@@H]3COP(=O)(S)O[C@H]3[C@@H](O)[C@H](n4ccc(=O)[nH]c4=O)O[C@H]3CO)[C@@H](OP(=O)(S)OCC(O)COP(=O)(S)O[C@H]3[C@@H](O)[C@H](n4ccc(N)nc4=O)O[C@@H]3COP(=O)(S)O[C@H]3[C@@H](O)[C@H](n4cnc5c(N)ncnc54)O[C@@H]3COP(=O)(S)O[C@H]3[C@@H](O)[C@H](n4cnc5c(=O)[nH]c(N)nc54)O[C@@H]3COP(=O)(S)O[C@H]3[C@@H](O)[C@H](n4ccc(=O)[nH]c4=O)O[C@@H]3COP(=O)(S)O[C@H]3[C@@H](O)[C@H](n4cnc5c(=O)[nH]c(N)nc54)O[C@@H]3COP(=O)(S)O[C@H]3[C@@H](O)[C@H](n4ccc(=O)[nH]c4=O)O[C@@H]3COP(=O)(S)O[C@H]3[C@@H](O)[C@H](n4cnc5c(=O)[nH]c(N)nc54)O[C@@H]3COP(=O)(S)O[C@H]3[C@@H](O)[C@H](n4ccc(=O)[nH]c4=O)O[C@@H]3COP(=O)(S)O[C@H]3[C@@H](O)[C@H](n4ccc(=O)[nH]c4=O)O[C@@H]3COP(=O)(S)O[C@H]3[C@@H](O)[C@H](n4cnc5c(=O)[nH]c(N)nc54)O[C@@H]3COP(=O)(S)O[C@H]3[C@@H](O)[C@H](n4ccc(=O)[nH]c4=O)O[C@@H]3CO)[C@H]2O)c(=O)n1 (stereo in doubt; 5)
Activity [1]: Dose-dependent effect | Activity [2]: inactive | Activity (PBMC [3]): Active | Activity (PBMC [4]): Active | Activity (PBMC [5]): Active | Activity (PBMC [6]): Active | Activity (PBMC [7]): Active | Activity (PBMC [8]): Active | Activity (PBMC [9]): Active | Activity (PBMC [10]): Active | Activity (PBMC [11]): Active | Activity (PBMC [12]): Active | Activity (PBMC [13]): Active | Activity (PBMC [14]): Active | Activity (Homo sapiens [15]): Active | Activity (Homo sapiens [16]): inactive | Activity (Homo sapiens [17]): Active | Activity (Homo sapiens [18]): Active | Activity (Homo sapiens [19]): Active | Activity (Homo sapiens [20]): Active | Activity (Mus musculus): inactive

Nc1ccn([C@@H]2O[C@H](COP(=O)(S)O[C@H]3[C@@H](O)[C@H](n4cnc5c(N)ncnc54)O[C@@H]3COP(=O)(S)O[C@H]3[C@@H](O)[C@H](n4cnc5c(=O)[nH]c(N)nc54)O[C@@H]3COP(=O)(S)O[C@H]3[C@@H](O)[C@H](n4ccc(=O)[nH]c4=O)O[C@@H]3COP(=O)(S)O[C@H]3[C@@H](O)[C@H](n4cnc5c(=O)[nH]c(N)nc54)O[C@@H]3COP(=O)(S)O[C@H]3[C@@H](O)[C@H](n4ccc(=O)[nH]c4=O)O[C@@H]3COP(=O)(S)O[C@H]3[C@@H](O)[C@H](n4cnc5c(=O)[nH]c(N)nc54)O[C@@H]3COP(=O)(S)O[C@H]3[C@@H](O)[C@H](n4ccc(=O)[nH]c4=O)O[C@@H]3COP(=O)(S)O[C@H]3[C@@H](O)[C@H](n4ccc(=O)[nH]c4=O)O[C@@H]3COP(=O)(S)O[C@H]3[C@@H](O)[C@H](n4cnc5c(=O)[nH]c(N)nc54)O[C@@H]3COP(=O)(S)O[C@H]3[C@@H](O)[C@H](n4ccc(=O)[nH]c4=O)O[C@H]3CO)[C@@H](OP(=O)(S)OCC(O)COP(=O)(S)O[C@H]3[C@@H](O)[C@H](n4ccc(N)nc4=O)O[C@@H]3COP(=O)(S)O[C@H]3[C@@H](O)[C@H](n4cnc5c(N)ncnc54)O[C@@H]3COP(=O)(S)O[C@H]3[C@@H](O)[C@H](n4cnc5c(=O)[nH]c(N)nc54)O[C@@H]3COP(=O)(S)O[C@H]3[C@@H](O)[C@H](n4ccc(=O)[nH]c4=O)O[C@@H]3COP(=O)(S)O[C@H]3[C@@H](O)[C@H](n4cnc5c(=O)[nH]c(N)nc54)O[C@@H]3COP(=O)(S)O[C@H]3[C@@H](O)[C@H](n4ccc(=O)[nH]c4=O)O[C@@H]3COP(=O)(S)O[C@H]3[C@@H](O)[C@H](n4cnc5c(=O)[nH]c(N)nc54)O[C@@H]3COP(=O)(S)O[C@H]3[C@@H](O)[C@H](n4ccc(=O)[nH]c4=O)O[C@@H]3COP(=O)(S)O[C@H]3[C@@H](O)[C@H](n4ccc(=O)[nH]c4=O)O[C@@H]3COP(=O)(S)O[C@H]3[C@@H](O)[C@H](n4cnc5c(=O)[nH]c(N)nc54)O[C@@H]3COP(=O)(S)O[C@H]3[C@@H](O)[C@H](n4ccc(=O)[nH]c4=O)O[C@@H]3CO)[C@H]2O)c(=O)n1 (stereo in doubt; 6)
remaining at 10 min [21]: 76%
